Patent US9556179B2 (BRISTOL-MYERS SQUIBB COMPANY, priority 2012, dated 2017)

Legend:
CK1ε = CK1ε (Homo sapiens (Human), UniProt P49674); assay: CK1ε kinase assay (Caliper LABCHIP electrophoretic separation of fluoresceinated peptide substrate and product); format: biochemical; conditions: 200 pM enzyme, 50 μM ATP, 22 hours at room temperature
In short: (§1)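 Kinase reactions ran 22 h at room temperature, were stopped with EDTA, and phosphorylated product was separated electrophoretically from unphosphorylated fluoresceinated peptide. Compounds were tested at eleven concentrations from 10 mM DMSO stocks. IC50 by non-linear regression.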

CK1δ = CK1δ (Homo sapiens (Human), UniProt P48730); assay: CK1δ kinase assay (Caliper LABCHIP electrophoretic separation of fluoresceinated peptide substrate and product); format: biochemical; conditions: 200 pM enzyme, 50 μM ATP, 22 hours at room temperature
In short: as §1

Sequence of CK1δ (P48730 whole entry): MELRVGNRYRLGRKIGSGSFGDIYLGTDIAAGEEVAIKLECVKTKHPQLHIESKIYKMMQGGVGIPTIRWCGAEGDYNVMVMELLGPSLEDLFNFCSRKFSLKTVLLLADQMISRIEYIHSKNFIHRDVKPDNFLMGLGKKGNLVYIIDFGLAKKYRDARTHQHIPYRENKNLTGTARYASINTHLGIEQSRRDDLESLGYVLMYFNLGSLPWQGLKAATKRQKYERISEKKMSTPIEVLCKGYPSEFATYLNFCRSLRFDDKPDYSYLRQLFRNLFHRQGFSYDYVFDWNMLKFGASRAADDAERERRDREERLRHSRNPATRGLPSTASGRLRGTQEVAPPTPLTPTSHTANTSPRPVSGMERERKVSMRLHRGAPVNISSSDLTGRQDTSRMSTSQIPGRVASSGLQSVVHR
Sequence of CK1ε (P49674 whole entry): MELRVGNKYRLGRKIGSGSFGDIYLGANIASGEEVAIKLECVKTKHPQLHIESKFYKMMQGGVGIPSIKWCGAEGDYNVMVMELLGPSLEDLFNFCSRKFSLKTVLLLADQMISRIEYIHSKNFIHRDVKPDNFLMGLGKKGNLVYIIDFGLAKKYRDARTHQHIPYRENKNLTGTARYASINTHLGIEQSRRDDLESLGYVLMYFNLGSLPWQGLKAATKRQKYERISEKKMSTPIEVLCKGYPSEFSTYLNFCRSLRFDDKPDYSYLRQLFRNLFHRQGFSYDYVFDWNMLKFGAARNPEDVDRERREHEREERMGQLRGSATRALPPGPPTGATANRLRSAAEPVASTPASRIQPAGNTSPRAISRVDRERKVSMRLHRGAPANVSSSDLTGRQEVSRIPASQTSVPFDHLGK

**Q.** What does the source list for `Cc1nc(-c2ccc(F)cc2)c(-c2ccc3nc(NC(=O)c4ccncn4)cn3n2)n1C` [Compound 384, N-(6-(4-(4-fluorophenyl)-1,2-dimethyl-1H-imidazol-5-yl)imidazo[1,2-b]pyridazin-2-yl)pyrimidine-4-carboxamide]?
**A.** IC50 (CK1ε): 29.1 nM; IC50 (CK1δ): 8.51 nM

**Q.** For `Cc1nc(-c2ccc(F)cc2)c(-c2ccc3nc(NC(=O)c4cccnn4)cn3n2)n1C` [Compound 386, N-(6-(4-(4-fluorophenyl)-1,2-dimethyl-1H-imidazol-5-yl)imidazo[1,2-b]pyridazin-2-yl)pyridazine-3-carboxamide], which IC50 (CK1ε) is on record?
**A.** 55.1 nM

**Q.** What about the IC50 (CK1δ) of the same compound?
**A.** 10.5 nM

**Q.** With `Cc1nc(-c2ccc(F)cc2)c(-c2ccc3nc(NC(=O)c4cnccn4)cn3n2)n1C` [Compound 388, N-(6-(4-(4-fluorophenyl)-1,2-dimethyl-1H-imidazol-5-yl)imidazo[1,2-b]pyridazin-2-yl)pyrazine-2-carboxamide] as the compound, how does the IC50 (CK1ε) read?
**A.** 19.4 nM

**Q.** And the IC50 (CK1δ)?
**A.** 7.12 nM

**Q.** `Cc1nc(-c2ccc(F)cc2)c(-c2ccc3nc(NC(=O)c4cc(-c5ccc(F)cc5)ncn4)cn3n2)n1C` [Compound 389] was tested. Which IC50 (CK1ε) did it give?
**A.** 270 nM

**Q.** What about the IC50 (CK1δ) of the same compound?
**A.** 35.2 nM

**Q.** With `Cc1nc(-c2ccc(F)cc2)c(-c2ccc3nc(NC(=O)c4cnc(-c5ccncc5)s4)cn3n2)n1C` [Compound 390, N-(6-(4-(4-fluorophenyl)-1,2-dimethyl-1H-imidazol-5-yl)imidazo[1,2-b]pyridazin-2-yl)-2-(pyridin-4-yl)thiazole-5-carboxamide] as the compound, how does the IC50 (CK1ε) read?
**A.** 32.6 nM

**Q.** And the IC50 (CK1δ)?
**A.** 7.2 nM

**Q.** With `Cc1nc(-c2ccc(F)cc2)c(-c2ccc3nc(NC(=O)c4ccnnc4)cn3n2)n1C` [Compound 391, N-(6-(4-(4-fluorophenyl)-1,2-dimethyl-1H-imidazol-5-yl)imidazo[1,2-b]pyridazin-2-yl)pyridazine-4-carboxamide] as the compound, how does the IC50 (CK1ε) read?
**A.** 10.5 nM

**Q.** And the IC50 (CK1δ)?
**A.** 4.45 nM

**Q.** Which IC50 (CK1ε) does the source give for `Cc1nc(-c2ccc(F)cc2)c(-c2ccc3nc(NC(=O)c4ccccc4CN(C)C)cn3n2)n1C` [Compound 392, 2-((dimthylamino)methyl)-N-(6-(4-(4-fluorophenyl)-1,2-dimethyl-1H-imidazol-5-yl)imidazo[1,2-b]pyridazin-2-yl)benzamide] here?
**A.** 54.5 nM

**Q.** And the IC50 (CK1δ)?
**A.** 16.7 nM

**Q.** `Cc1nc(-c2ccc(F)cc2)c(-c2ccc3nc(NC(=O)c4cccc(CN5CCCC5)c4)cn3n2)n1C` [Compound 394, N-(6-(4-(4-fluorophenyl)-1,2-dimethyl-1H-imidazol-5-yl)imidazo[1,2-b]pyridazin-2-yl)-3-(pyrrolidin-1-ylmethyl) benzamide] was tested. Which IC50 (CK1ε) did it give?
**A.** 15.3 nM

**Q.** What about the IC50 (CK1δ) of the same compound?
**A.** 6.81 nM

**Q.** What does the source list for `Cc1nc(-c2ccc(F)cc2)c(-c2ccc3nc(NC(=O)c4ccc(CN5CCCC5)cc4)cn3n2)n1C` [Compound 395, N-(6-(4-(4-fluorophenyl)-1,2-dimethyl-1H-imidazol-5-yl)imidazo[1,2-b]pyridazin-2-yl)-4-(pyrrolidin-1-ylmethyl) benzamide]?
**A.** IC50 (CK1ε): 10.6 nM; IC50 (CK1δ): 5.46 nM

**Q.** With `Cc1nc(-c2ccc(F)cc2)c(-c2ccc3nc(NC(=O)c4cncs4)cn3n2)n1C` [Compound 396, N-(6-(4-(4-fluorophenyl)-1,2-dimethyl-1H-imidazol-5-yl)imidazo[1,2-b]pyridazin-2-yl)thiazole-5-carboxamide] as the compound, how does the IC50 (CK1ε) read?
**A.** 4.41 nM

**Q.** And the IC50 (CK1δ)?
**A.** 3.88 nM

**Q.** Which results are given for `Cc1nc(-c2ccc(F)cc2)c(-c2ccc3nc(NC(=O)c4ccncc4F)cn3n2)n1C` [Compound 397, 3-fluoro-N-(6-(4-(4-fluoro-phenyl)-1,2-dimethyl-1H-imidazol-5-yl)imidazo[1,2-b]pyridazin-2-yl)isonicotin-amide]?
**A.** IC50 (CK1ε): 6.65 nM; IC50 (CK1δ): 2.74 nM

**Q.** For `Cc1nc(-c2ccc(F)cc2)c(-c2ccc3nc(NC(=O)c4ccc(Cl)cc4F)cn3n2)n1C` [Compound 398, 4-chloro-2-fluoro-N-(6-(4-(4-fluorophenyl)-1,2-dimethyl-1H-imidazol-5-yl)imidazo[1,2-b]pyridazin-2-yl) benzamide], which IC50 (CK1ε) is on record?
**A.** 2.7 nM

**Q.** What about the IC50 (CK1δ) of the same compound?
**A.** 0.66 nM

**Q.** How did the IC50 (CK1ε) turn out when `Cc1nc(-c2ccc(F)cc2)c(-c2ccc3nc(NC(=O)c4ccccc4F)cn3n2)n1C` [Compound 399, 2-fluoro-N-(6-(4-(4-fluoro-phenyl)-1,2-dimethyl-1H-imidazol-5-yl)imidazo[1,2-b]pyridazin-2-yl)benzamide] was run?
**A.** 5.29 nM

**Q.** What about the IC50 (CK1δ) of the same compound?
**A.** 2.13 nM

**Q.** Which results are given for `Cc1nc(-c2ccc(F)cc2)c(-c2ccc3nc(NC(=O)c4cc(C(C)(C)C)ncn4)cn3n2)n1C` [Compound 400, 6-(tert-butyl)-N-(6-(4-(4-fluorophenyl)-1,2-dimethyl-1H-imidazol-5-yl)imidazo[1,2-b]pyridazin-2-yl) pyrimidine-4-carboxamide]?
**A.** IC50 (CK1ε): 23.3 nM; IC50 (CK1δ): 6.76 nM

**Q.** Which IC50 (CK1ε) does the source give for `Cc1cc(C)c(-c2cccnc2)cc1C(=O)Nc1cn2nc(-c3c(-c4ccc(F)cc4)nc(C)n3C)ccc2n1` [Compound 402, N-(6-(4-(4-Fluorophenyl)-1,2-dimethyl-1H-imidazol-5-yl)imidazo[1,2-b]pyridazin-2-yl)-2,4-dimethyl-5-(pyridin-3-yl)benzamide] here?
**A.** 7.47 nM

**Q.** And the IC50 (CK1δ)?
**A.** 0.463 nM

**Q.** How did the IC50 (CK1ε) turn out when `Cc1c(C(=O)Nc2cn3nc(-c4c(-c5ccc(F)cc5)nc(C)n4C)ccc3n2)cccc1-c1cccnc1` [Compound 403, N-(6-(4-(4-Fluorophenyl)-1,2-dimethyl-1H-imidazol-5-yl)imidazo[1,2-b]pyridazin-2-yl)-2-methyl-3-(pyridin-3-yl)benzamide] was run?
**A.** 1.61 nM

**Q.** What about the IC50 (CK1δ) of the same compound?
**A.** 0.582 nM

**Q.** What does the source list for `Cc1nc(-c2ccc(F)cc2)c(-c2ccc3nc(NC(=O)c4sc(-c5cccnc5)nc4C(F)(F)F)cn3n2)n1C` [Compound 404, N-(6-(4-(4-Fluorophenyl)-1,2-dimethyl-1H-imidazol-5-yl)imidazo[1,2-b]pyridazin-2-yl)-2-(pyridin-3-yl)-4-(trifluoromethyl)thiazole-5-carboxamide]?
**A.** IC50 (CK1ε): 4.21 nM; IC50 (CK1δ): 1.04 nM

**Q.** `Cc1nc(-c2ccc(F)cc2)c(-c2ccc3nc(NC(=O)c4sc(-c5ccncc5)nc4C(F)(F)F)cn3n2)n1C` [Compound 405, N-(6-(4-(4-Fluorophenyl)-1,2-dimethyl-1H-imidazol-5-yl)imidazo[1,2-b]pyridazin-2-yl)-2-(pyridin-4-yl)-4-(trifluoromethyl)thiazole-5-carboxamide] was tested. Which IC50 (CK1ε) did it give?
**A.** 4.21 nM

**Q.** And the IC50 (CK1δ)?
**A.** 1.04 nM

**Q.** How did the IC50 (CK1ε) turn out when `Cc1nc(-c2ccc(F)cc2)c(-c2ccc3nc(NC(=O)c4cncc(-c5ccc(F)nc5)c4)cn3n2)n1C` [Compound 406, 6′-Fluoro-N-(6-(4-(4-fluorophenyl)-1,2-dimethyl-1H-imidazol-5-yl)imidazo[1,2-b]pyridazin-2-yl)-[3,3′-bipyridine]-5-carboxamide] was run?
**A.** 2.94 nM

**Q.** What about the IC50 (CK1δ) of the same compound?
**A.** 0.349 nM

**Q.** For `Cc1nc(-c2ccc(F)cc2)c(-c2ccc3nc(NC(=O)N(C)c4ccccc4)cn3n2)n1C` [Compound 407, 3-(6-(4-(4-Fluorophenyl)-1,2-dimethyl-1H-imidazol-5-yl)imidazo[1,2-b]pyridazin-2-yl)-1-methyl-1-phenylurea], which IC50 (CK1ε) is on record?
**A.** 59.8 nM

**Q.** And the IC50 (CK1δ)?
**A.** 34.9 nM

**Q.** With `Cc1nc(-c2ccc(F)cc2)c(-c2ccc3nc(NC(=O)Nc4ccc(C#N)cc4)cn3n2)n1C` [Compound 408, 1-(4-cyanophenyl)-3-(6-(4-(4-fluorophenyl)-1,2-dimethyl-1H-imidazol-5-yl)imidazo[1,2-b]pyridazin-2-yl)urea] as the compound, how does the IC50 (CK1ε) read?
**A.** 296 nM

**Q.** And the IC50 (CK1δ)?
**A.** 12.9 nM

**Q.** Which results are given for `Cc1nc(-c2ccc(F)cc2)c(-c2ccc3nc(NC(=O)N4CCCC4)cn3n2)n1C` [Compound 409, N-(6-(4-(4-fluorophenyl)-1,2-dimethyl-1H-imidazol-5-yl)imidazo[1,2-b]pyridazin-2-yl)pyrrolidine-1-carboxamide]?
**A.** IC50 (CK1ε): 30.8 nM; IC50 (CK1δ): 58 nM
